Measured values published in PubChem BioAssay (NCI).
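GI50 = concentration required for 50% inhibition of growth. TGI denotes the concentration required for complete inhibition of growth.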

Experiments:
Assay in all cases: inhibition of tumour cell growth, NCI panel, 384-well format
[1] = tested on: NCI-H226 lung
[2] = tested on: MDA-MB-435 melanoma
[3] = tested on: NCI-H23 lung
[4] = tested on: M14 melanoma
[5] = tested on: HOP-62 NSCLC
[6] = tested on: RPMI-8226 leukemia
[7] = tested on: ACHN renal
[8] = tested on: HCT-116 colon
[9] = tested on: HT29 colon
[10] = tested on: SW-620 colon
[11] = tested on: MDA-MB-468 breast
[12] = tested on: SK-MEL-5 melanoma
[13] = tested on: SNB-19 CNS
[14] = tested on: NCI/ADR-RES ovarian
[15] = tested on: HCT-15 colon
[16] = tested on: CCRF-CEM leukemia
[17] = tested on: DU-145 prostate
[18] = tested on: NCI-H322M lung
[19] = tested on: NCI-H522 lung
[20] = tested on: MDA-MB-231 breast
[21] = tested on: MCF7 breast
[22] = tested on: A498 renal
[23] = tested on: HCC-2998 colon
[24] = tested on: NCI-H460 NSCLC
[25] = tested on: SF-539 CNS
[26] = tested on: UACC-257 melanoma
[27] = tested on: SK-OV-3 ovarian
[28] = tested on: SNB-75 CNS
[29] = tested on: EKVX NSCLC
[30] = tested on: UACC-62 melanoma
[31] = tested on: SF-268 CNS
[32] = tested on: COLO 205 colon
[33] = tested on: IGROV1 ovarian
[34] = tested on: OVCAR-3 ovarian
[35] = tested on: HOP-92 NSCLC
[36] = tested on: SF-295 CNS
[37] = tested on: SN12C renal
[38] = tested on: CAKI-1 renal
[39] = tested on: KM12 colon
[40] = tested on: BT-549 breast
[41] = tested on: RXF 393 renal
[42] = tested on: HS 578T breast
[43] = tested on: SK-MEL-28 melanoma
[44] = tested on: TK-10 renal
[45] = tested on: OVCAR-8 ovarian
[46] = tested on: 786-0 renal
[47] = tested on: OVCAR-5 ovarian
[48] = tested on: MOLT-4 leukemia
[49] = tested on: T-47D breast
[50] = tested on: HL-60(TB) leukemia
[51] = tested on: PC-3 prostate
[52] = tested on: LOX IMVI melanoma
[53] = tested on: U251 glioblastoma
[54] = tested on: MALME-3M melanoma
[55] = tested on: OVCAR-4 ovarian
[56] = tested on: A549 NSCLC
[57] = tested on: UO-31 renal
[58] = tested on: K-562 leukemia

Cc1cnc(CNC(=O)c2c(=O)c3ccc(N4CCCN(C)CC4)nc3n3c2sc2ccccc23)cn1
GI50 [1]: 741 nM | TGI [1]: > 100000 nM | GI50 [2]: 2900 nM | TGI [2]: > 100000 nM | GI50 [3]: 714 nM | TGI [3]: > 100000 nM | GI50 [4]: 781 nM | TGI [4]: > 100000 nM | GI50 [5]: 122 nM | TGI [5]: > 100000 nM | GI50 [6]: 58.3 nM | TGI [6]: 1620 nM | GI50 [7]: 64.3 nM | TGI [7]: > 100000 nM | GI50 [8]: 112 nM | TGI [8]: 1450 nM | GI50 [9]: 330 nM | TGI [9]: > 100000 nM | GI50 [10]: 99.1 nM | TGI [10]: > 100000 nM | GI50 [11]: 12400 nM | TGI [11]: > 100000 nM | GI50 [12]: 172 nM | TGI [12]: 48000 nM | GI50 [13]: 322 nM | TGI [13]: > 100000 nM | GI50 [14]: > 100000 nM | TGI [14]: > 100000 nM | GI50 [15]: 87.7 nM | TGI [15]: 2760 nM | GI50 [16]: 24.2 nM | TGI [16]: 111 nM | GI50 [17]: 490 nM | TGI [17]: 33500 nM | GI50 [18]: 877 nM | TGI [18]: > 100000 nM | GI50 [19]: 19900 nM | TGI [19]: > 100000 nM | GI50 [20]: 397 nM | TGI [20]: > 100000 nM | GI50 [21]: 416 nM | TGI [21]: 1750 nM | GI50 [22]: 112 nM | TGI [22]: 1550 nM | GI50 [23]: 1660 nM | TGI [23]: 19200 nM | GI50 [24]: 22.8 nM | TGI [24]: 1120 nM | GI50 [25]: 259 nM | TGI [25]: > 100000 nM | GI50 [26]: 7630 nM | TGI [26]: > 100000 nM | GI50 [27]: 1350 nM | TGI [27]: > 100000 nM | GI50 [28]: 832 nM | TGI [28]: > 100000 nM | GI50 [29]: 34000 nM | TGI [29]: > 100000 nM | GI50 [30]: 175 nM | TGI [30]: > 100000 nM | GI50 [31]: 24.1 nM | TGI [31]: 88 nM | GI50 [32]: 244 nM | TGI [32]: > 100000 nM | GI50 [33]: 323 nM | TGI [33]: > 100000 nM | GI50 [34]: 462 nM | TGI [34]: 48500 nM | GI50 [35]: 353 nM | TGI [35]: > 100000 nM | GI50 [36]: 608 nM | TGI [36]: > 100000 nM | GI50 [37]: 307 nM | TGI [37]: > 100000 nM | GI50 [38]: 607 nM | TGI [38]: > 100000 nM | GI50 [39]: 1030 nM | TGI [39]: 2450 nM | GI50 [40]: 1380 nM | TGI [40]: > 100000 nM | GI50 [41]: 80.6 nM | TGI [41]: > 100000 nM | GI50 [42]: 69.7 nM | TGI [42]: > 100000 nM | GI50 [43]: 27000 nM | TGI [43]: > 100000 nM | GI50 [44]: 9170 nM | TGI [44]: > 100000 nM | GI50 [45]: 234 nM | TGI [45]: > 100000 nM | GI50 [46]: 359 nM | TGI [46]: 12800 nM | GI50 [47]: 27700 nM | TGI [47]: > 100000 nM | TGI [48]: 17.5 nM | GI50 [49]: 21500 nM | TGI [49]: > 100000 nM | GI50 [50]: 58.6 nM | TGI [50]: 2260 nM | GI50 [51]: 1600 nM | TGI [51]: 22300 nM | GI50 [52]: 138 nM | TGI [52]: 1410 nM | GI50 [53]: 517 nM | TGI [53]: > 100000 nM | GI50 [54]: 806 nM | TGI [54]: > 100000 nM | GI50 [55]: 383 nM | TGI [55]: 5560 nM | GI50 [56]: 36.9 nM | TGI [56]: 1340 nM | GI50 [57]: 1540 nM | TGI [57]: > 100000 nM | GI50 [58]: 231 nM | TGI [58]: 16300 nM
